According to ChEMBL document CHEMBL1151875, “Design and synthesis of a novel tyrosine kinase inhibitor template” (Bioorg Med Chem, 2009):

Legend:
[1] = target: ALK tyrosine kinase receptor (Homo sapiens, UniProt Q9UM73); assay: Inhibition of 6xHis-tagged human NPM-ALK expressed in insect cells
Insulin receptor = Insulin receptor (Homo sapiens, UniProt P06213); assay: Inhibition of human recombinant IRK
[2] = target: Hepatocyte growth factor receptor (Homo sapiens, UniProt P08581); assay: Inhibition of recombinant MET
[3] = target: Tyrosine-protein kinase JAK2 (Homo sapiens, UniProt O60674); assay: Inhibition of recombinant JAK2
[4] = target: Insulin-like growth factor 1 receptor (Homo sapiens, UniProt P08069); assay: Inhibition of recombinant IGFR1
Chain of Insulin-like growth factor 1 receptor (P08069 31-736 limits assumed): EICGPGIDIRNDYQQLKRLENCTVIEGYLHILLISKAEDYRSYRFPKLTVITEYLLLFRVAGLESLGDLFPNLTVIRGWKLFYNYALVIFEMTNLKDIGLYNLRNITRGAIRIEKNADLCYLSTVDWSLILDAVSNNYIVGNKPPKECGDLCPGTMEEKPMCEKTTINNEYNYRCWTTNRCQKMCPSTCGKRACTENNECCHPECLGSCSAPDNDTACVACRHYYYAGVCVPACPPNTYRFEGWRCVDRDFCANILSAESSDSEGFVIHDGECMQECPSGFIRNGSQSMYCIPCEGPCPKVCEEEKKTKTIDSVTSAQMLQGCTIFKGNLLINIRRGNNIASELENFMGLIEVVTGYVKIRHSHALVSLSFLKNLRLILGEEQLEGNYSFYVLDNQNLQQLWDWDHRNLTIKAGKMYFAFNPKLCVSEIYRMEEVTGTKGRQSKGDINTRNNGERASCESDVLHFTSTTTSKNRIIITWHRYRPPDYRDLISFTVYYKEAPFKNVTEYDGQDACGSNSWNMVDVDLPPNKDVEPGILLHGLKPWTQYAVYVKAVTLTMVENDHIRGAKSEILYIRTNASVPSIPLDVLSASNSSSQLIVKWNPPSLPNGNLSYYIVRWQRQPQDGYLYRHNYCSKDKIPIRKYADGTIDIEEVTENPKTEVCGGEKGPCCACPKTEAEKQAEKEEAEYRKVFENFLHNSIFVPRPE
Chain of Insulin-like growth factor 1 receptor (P08069 741-1367 limits assumed): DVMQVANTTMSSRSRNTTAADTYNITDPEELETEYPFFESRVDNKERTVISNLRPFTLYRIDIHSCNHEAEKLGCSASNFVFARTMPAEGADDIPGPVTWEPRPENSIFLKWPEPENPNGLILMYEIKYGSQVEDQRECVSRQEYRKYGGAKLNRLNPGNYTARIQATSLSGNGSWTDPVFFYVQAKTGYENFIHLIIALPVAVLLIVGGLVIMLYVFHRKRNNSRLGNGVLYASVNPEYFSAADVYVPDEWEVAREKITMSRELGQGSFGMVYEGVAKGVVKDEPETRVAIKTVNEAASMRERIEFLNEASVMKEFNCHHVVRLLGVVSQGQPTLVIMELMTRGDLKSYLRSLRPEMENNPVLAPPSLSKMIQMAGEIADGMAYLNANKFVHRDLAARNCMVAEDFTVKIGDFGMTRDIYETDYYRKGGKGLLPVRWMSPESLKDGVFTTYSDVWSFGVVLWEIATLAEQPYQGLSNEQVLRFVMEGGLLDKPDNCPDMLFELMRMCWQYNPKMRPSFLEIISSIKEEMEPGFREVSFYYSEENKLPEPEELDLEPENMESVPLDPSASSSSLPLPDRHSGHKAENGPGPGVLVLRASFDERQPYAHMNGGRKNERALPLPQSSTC

Chain of Tyrosine-protein kinase JAK2 (O60674 whole entry): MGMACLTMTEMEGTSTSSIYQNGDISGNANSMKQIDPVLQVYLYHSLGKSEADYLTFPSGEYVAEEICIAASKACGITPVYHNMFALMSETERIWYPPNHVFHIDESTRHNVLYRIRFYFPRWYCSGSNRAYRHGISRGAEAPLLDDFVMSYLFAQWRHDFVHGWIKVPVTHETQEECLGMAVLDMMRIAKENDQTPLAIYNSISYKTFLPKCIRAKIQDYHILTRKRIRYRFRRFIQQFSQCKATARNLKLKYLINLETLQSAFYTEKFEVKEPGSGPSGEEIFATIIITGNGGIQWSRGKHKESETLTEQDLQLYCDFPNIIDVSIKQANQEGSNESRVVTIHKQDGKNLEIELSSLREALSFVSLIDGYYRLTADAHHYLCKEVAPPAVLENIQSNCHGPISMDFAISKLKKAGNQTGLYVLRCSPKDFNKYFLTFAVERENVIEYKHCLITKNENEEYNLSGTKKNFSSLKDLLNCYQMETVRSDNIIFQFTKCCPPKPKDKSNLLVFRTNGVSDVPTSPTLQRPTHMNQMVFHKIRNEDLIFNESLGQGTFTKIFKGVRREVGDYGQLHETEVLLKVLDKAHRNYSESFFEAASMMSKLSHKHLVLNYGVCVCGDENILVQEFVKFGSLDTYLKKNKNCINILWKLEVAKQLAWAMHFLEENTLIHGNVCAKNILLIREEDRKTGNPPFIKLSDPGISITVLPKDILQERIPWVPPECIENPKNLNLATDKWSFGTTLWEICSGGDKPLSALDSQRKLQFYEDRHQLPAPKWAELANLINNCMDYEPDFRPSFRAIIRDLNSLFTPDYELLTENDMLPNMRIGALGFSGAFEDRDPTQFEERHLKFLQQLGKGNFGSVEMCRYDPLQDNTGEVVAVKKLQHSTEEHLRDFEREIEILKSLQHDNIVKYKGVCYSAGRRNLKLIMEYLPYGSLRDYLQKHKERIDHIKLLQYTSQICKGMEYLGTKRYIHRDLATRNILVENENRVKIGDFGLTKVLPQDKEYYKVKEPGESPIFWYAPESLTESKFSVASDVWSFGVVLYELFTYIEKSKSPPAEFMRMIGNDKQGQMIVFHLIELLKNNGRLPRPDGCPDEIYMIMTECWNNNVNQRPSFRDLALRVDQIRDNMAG
Chain of Insulin receptor (P06213 28-758 limits assumed): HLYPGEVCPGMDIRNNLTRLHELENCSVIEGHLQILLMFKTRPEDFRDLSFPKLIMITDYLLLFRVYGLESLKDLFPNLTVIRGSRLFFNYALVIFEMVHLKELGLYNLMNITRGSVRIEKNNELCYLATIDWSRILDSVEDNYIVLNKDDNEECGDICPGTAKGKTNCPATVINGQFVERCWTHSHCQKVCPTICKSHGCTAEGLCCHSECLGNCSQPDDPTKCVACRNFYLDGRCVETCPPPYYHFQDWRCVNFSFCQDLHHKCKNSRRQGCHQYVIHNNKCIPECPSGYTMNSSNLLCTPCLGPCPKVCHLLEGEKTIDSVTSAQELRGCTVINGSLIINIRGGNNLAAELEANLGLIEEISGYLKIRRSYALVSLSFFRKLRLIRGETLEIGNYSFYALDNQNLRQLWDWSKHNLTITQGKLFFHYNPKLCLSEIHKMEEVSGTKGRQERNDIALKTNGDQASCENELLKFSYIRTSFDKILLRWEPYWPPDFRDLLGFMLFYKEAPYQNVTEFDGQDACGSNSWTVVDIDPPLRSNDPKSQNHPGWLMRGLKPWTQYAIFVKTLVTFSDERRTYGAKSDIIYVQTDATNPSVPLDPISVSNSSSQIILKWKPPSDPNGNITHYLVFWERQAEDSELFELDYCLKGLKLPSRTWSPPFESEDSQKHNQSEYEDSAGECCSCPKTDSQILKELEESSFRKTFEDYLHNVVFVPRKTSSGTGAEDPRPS
Chain of Insulin receptor (P06213 763-1382 limits assumed): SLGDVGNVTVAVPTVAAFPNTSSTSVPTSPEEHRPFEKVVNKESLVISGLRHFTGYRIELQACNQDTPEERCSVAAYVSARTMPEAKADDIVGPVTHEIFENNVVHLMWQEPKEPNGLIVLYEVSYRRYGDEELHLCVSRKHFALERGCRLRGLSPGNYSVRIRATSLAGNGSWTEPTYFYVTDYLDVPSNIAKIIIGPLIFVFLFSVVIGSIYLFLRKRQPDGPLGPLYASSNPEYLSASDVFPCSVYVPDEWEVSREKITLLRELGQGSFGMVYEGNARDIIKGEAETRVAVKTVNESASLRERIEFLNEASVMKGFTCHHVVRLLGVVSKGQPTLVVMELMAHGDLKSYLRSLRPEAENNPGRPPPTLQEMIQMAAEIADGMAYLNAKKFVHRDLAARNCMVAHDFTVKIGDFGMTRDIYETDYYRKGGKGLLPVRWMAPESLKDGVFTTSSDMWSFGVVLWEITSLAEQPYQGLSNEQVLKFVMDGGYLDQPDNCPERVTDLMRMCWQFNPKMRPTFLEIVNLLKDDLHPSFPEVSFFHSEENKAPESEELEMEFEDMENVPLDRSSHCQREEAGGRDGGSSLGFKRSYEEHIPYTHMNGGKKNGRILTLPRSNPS

Row | IC50 [1] [µM] | IC50 (Insulin receptor) [µM] | IC50 [2] [µM] | IC50 [3] [µM] | IC50 [4] [µM] | Structure (SMILES)
1 | 5 | > 40 | 8.6 |  |  | Brc1ccc2[nH]c3c(c2c1)CCN(CC(c1ccccc1)c1ccccc1)c1nccc(I)c1-3
2 | > 40 | > 40 | > 40 |  |  | Clc1nccc2c1-c1[nH]c3ccc(Br)cc3c1CCN2CC(c1ccccc1)c1ccccc1
3 | 5.8 | 11.9 | 12.9 |  |  | C[C@@H](c1ccccc1)N1CCc2c([nH]c3ccc(Br)cc23)-c2c1ccnc2Cl
4 | 21.3 | 30.5 | 26.1 | 33.5 | 24.7 | Cc1cc2c(c(Cl)n1)-c1[nH]c3ccccc3c1CCN2CCc1ccccc1
5 | 8.3 | > 40 | > 40 |  |  | C[C@@H](c1ccccc1)N1CCc2c([nH]c3ccc(Br)cc23)-c2c(I)ccnc21
6 | 9.3 | > 40 | > 40 |  |  | Clc1nccc2c1-c1[nH]c3ccc(Br)cc3c1CCN2CCc1c[nH]c2ccccc12
7 | 7.1 | > 40 | 12.5 |  |  | Oc1ccc(CCN2CCc3c([nH]c4ccc(Br)cc34)-c3c2ccnc3Cl)cc1

The remaining lines, values behind:

Row | Structure (SMILES) | IC50 [1] [µM] | IC50 (Insulin receptor) [µM] | IC50 [2] [µM] | IC50 [3] [µM] | IC50 [4] [µM]
8 | COc1nc(C)cc2c1-c1[nH]c3cc(N4CCN(C)CC4)ccc3c1CCN2CCc1ccccc1 | 5.1 | 3.5 | 5.5 | 5.1 | 4.5
9 | Oc1ccc(CCN2CCc3c([nH]c4ccc(Br)cc34)-c3c(I)ccnc32)cc1 | 6.2 | 11.1 | 9.7 |  | 
10 | Cc1cc(Cl)c2c(n1)N(CCc1ccccc1)CCc1c-2[nH]c2ccccc12 | 11.8 | 19.8 | 12.4 | > 40 | 12.6
11 | COc1cc(C)nc2c1-c1[nH]c3ccccc3c1CCN2CCc1ccccc1 | > 40 | > 40 | > 40 | > 40 | > 40
12 | COc1nc(C)cc2c1-c1[nH]c3ccccc3c1CCN2CCc1ccccc1 | > 40 | > 40 | > 40 | > 40 | > 40
13 | Cc1cc2c(c(=O)[nH]1)-c1[nH]c3ccccc3c1CCN2CCc1ccccc1 | 18 | 15.6 | 19.7 | 16.9 | 11.8
